{
  "source": "patent US20080020947A1",
  "about": "“Novel microorganisms having oil biodegradability and method for bioremediation of oil-contaminated soil” (priority 2006, published 2008)",
  "key": {"Gordonia nitida NP1": {"test_system": "Gordonia nitida NP1", "test": "Biosurfactant's ability to increase diesel oil degradation by Gordonia nitida NP1", "assay_type": "cell-based", "settings": "acid 9 ppm", "protocol": "(§1) For this reason, 2-hexyl-3-hydroxy-decanoic acid having 16 carbon atoms according to the present invention was added liquid media each containing 10,000 ppm or 20,000 ppm of diesel oil and mineral medium (NH4NO3, 1 g/L; MgSO4, 0.2 g/L; CaCl2, 0.02 g/L; FeCl2, 0.05 g/L; KH2PO4, 1 g/L; K2HPO4, 1 g/L; pH 7.0). Then, the media were inoculated with each of Rodococcus baikoneurensis EN3 of Example 2 and Gordonia nitida NP1 of Example 6 and cultured at 30° C. for 7 days. Then, an increase in the oil biodegradability of each of the microbial strains was measured using gas chromatography.\nFIG. 10 is a graphic diagram showing an increase in the diesel oil degradability of Gordonia nitida NP1, caused by the synthetic biosurfactant 2-hexyl-3-hydroxy-decanoic acid, at an initial diesel concentration of 15,000 ppm. In FIG. 10, the initial inoculation level of […] is 6×10^4 cfu/ml, and the initial concentration of diesel oil is 15,000 ppm. Also, the initial concentrations of 2-hexyl-3-hydroxy-decanoic acid were 9 ppm (▾), 90 ppm (∇) and 900 ppm (▪), the symbol “[…]” indicates a microorganism-uninoculated group (control group 1), and the symbol “∘” indicates a group (control group 2), which was inoculated with microorganisms, but not injected with 2-hexyl-3-hydroxy-decanoic acid. […]"}, "[1]": {"test_system": "Rodococcus baikoneurensis EN3", "test": "Biosurfactant's ability to increase diesel oil degradation by Rodococcus baikoneurensis EN3", "assay_type": "cell-based", "settings": "initial diesel 20,000 ppm; acid 10 ppm, 50 ppm and 100 ppm; about 30% without acid", "protocol": "as §1\nFIG. 9 is a graphic diagram showing an increase in the diesel oil degradability of Rodococcus baikoneurensis EN3, caused by the synthetic biosurfactant 2-hexyl-3-hydroxy-decanoic acid, at an initial diesel concentration of 20,000 ppm. In FIG. 9, the initial inoculation level of Rodococcus baikoneurensis EN3 is 6×10^4 cfu/ml, and the initial concentration of diesel oil is 20,000 ppm. Also, the initial concentrations of 2-hexyl-3-hydroxy-decanoic acid are 10 ppm (∘), 50 ppm (□) and 100 ppm (Δ), the symbol “•” indicates a microorganism-uninoculated group (control group 1), and the symbol “▪” indicates a group (control group 2), which was inoculated with microorganisms, but not injected with 2-hexyl-3-hydroxy-decanoic acid."}, "[2]": {"test_system": "mixed cultured strain of Examples 2, 6 and 7", "test": "Microbial growth promotion of biosurfactant 2-hexyl-3-hydroxy-decanoic acid (cfu per ml after culture)", "assay_type": "cell-based", "settings": "0.1 in composition of Examples 16 and 17", "protocol": "These examples relate to an experiment of confirming whether the growth of microorganisms having oil biodegradability is promoted due to the addition of biosurfactant 2-hexyl-3-hydroxy-decanoic acid.\nIn this experiment, the mixed cultured strain of Examples 2, 6 and 7 was added to tryptic soy broth (TSB) and then cultured for 13 hours. In the culture process, the microbial strain was added into a 100-ml flask at an initial concentration of 4.9×10^6 cfu/ml to a work volume of 10 ml, and the inoculation level of the strain was 1% (w/v), i.e., 0.1 ml.\nIn Comparative Examples 7-10 and Examples 16 and 17, the microbial strain was cultured in media (10 g/L) at 30° C. for 24 hours, and then measured for colony-forming units (cfu) per ml to determine the degree of proliferation of microorganisms.\nSpecifically, a composition used in Comparative Examples 7-10 consisted of glucose, yeast extract, malt extract, Na2HPO4, KH2PO4, K2HPO4, MgSO4, CaCl2, FeSO4, CoCl2, ZnSO4, CuSO4 and MnSO4, and a composition used in Examples 16 and 17 consisted of glucose, yeast extract, malt extract, Na2HPO4, KH2PO4, K2HPO4, MgSO4, CaCl2, FeSO4, CoCl2, ZnSO4, CuSO4 and MnSO4, to which the biosurfactant 2-hexyl-3-hydroxy-decanoic acid was added."}, "[3]": {"test": "Critical micelle concentration", "assay_type": "physicochemical"}},
  "data": [
    {"molecule": "CCCCCCCC(O)C(CCCCCC)C(=O)O", "note": "(centres unmarked) [2-hexyl-3-hydroxy-decanoic acid]", "values": [
      {"measurement": "change in diesel oil degradation rate of the microbial strain with acid added", "setting": "Gordonia nitida NP1; 90 ppm and 900 ppm, initial diesel 15,000 ppm and 20,000 ppm (FIGS. 10, 11)", "result": "great increase"},
      {"measurement": "change in oil degradation rate of the microbial strain with acid added", "setting": "Gordonia nitida NP1; initial diesel 20,000 ppm", "result": "did not show an increase"},
      {"measurement": "oil biodegradation rate of the microbial strain with acid added", "setting": "[1]", "result": "about 70%"},
      {"measurement": "effect of addition on growth of the microorganisms", "setting": "[2]", "result": "promotion of growth"},
      {"measurement": "critical micelle concentration (cmc)", "setting": "[3]", "result": 37.1, "unit": "ppm"}
    ]}
  ]
}
